Laboratory results from ChEMBL document CHEMBL3286181, “Pyridopyrimidinone inhibitors of HIV-1 RNase H” (Eur J Med Chem, 2014).
Converted amounts (≈) assume the structure as drawn. The source made the active and inactive calls. No cut-off for these calls is given here.

What was measured:
[1] = target: T1, Human immunodeficiency virus type 1 integrase (Human immunodeficiency virus 1, UniProt Q7ZJM1); assay: Inhibition of recombinant HIV1 integrase bound with donor DNA-SPA beads using [3H] target DNA as substrate assessed as strand transfer activity preincubated for 60 mins followed by substrate addition measured after 25 to 45 mins
T1 sequence (Q7ZJM1 whole entry): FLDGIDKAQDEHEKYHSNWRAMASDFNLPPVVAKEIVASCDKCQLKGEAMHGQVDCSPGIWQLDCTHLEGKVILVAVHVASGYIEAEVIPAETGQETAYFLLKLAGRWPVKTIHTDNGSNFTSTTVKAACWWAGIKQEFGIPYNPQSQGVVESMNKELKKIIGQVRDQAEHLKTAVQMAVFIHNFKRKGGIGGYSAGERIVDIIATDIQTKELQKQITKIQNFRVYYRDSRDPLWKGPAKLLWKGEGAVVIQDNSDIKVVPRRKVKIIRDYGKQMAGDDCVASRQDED

Rattus norvegicus = assay: Dose normalized AUC in Sprague-Dawley (CD) rat at 1 mg/kg, iv; assay type: ADME, organism-based; set-up: dose 1 mg/kg, route intravenous; details: in vivo
[2] = target: Human immunodeficiency virus type 1 reverse transcriptase (Human immunodeficiency virus 1, UniProt Q72547); assay: Inhibition of HIV1 reverse transcriptase RNase-H activity using dATP, dCTP, dTTP, [8-3H(N)]-dGTP, oligo1, oligo 2, oligo 3 as substrate preincubated for 30 mins followed by substrate addition measured after 90 mins
[3] = target: Human immunodeficiency virus type 1 reverse transcriptase (Human immunodeficiency virus 1) (UniProt Q72547); assay: Inhibition of HIV1 reverse transcriptase DNA polymerase activity up to 10 uM
[4] = Inhibition of HIV1 reverse transcriptase strand transfer activity
[5] = target: T1, Human immunodeficiency virus type 1 integrase; assay: Inhibition of recombinant HIV1 N-terminal His6-tagged integrase expressed in Escherichia coli using 32P-labeled preprocessed HIV-1 U5 DNA as substrate assessed as strand transfer activity after 2 hrs by densitometric analysis
[6] = target: T1, Human immunodeficiency virus type 1 integrase; assay: Inhibition of HIV1 integrase strand transfer activity
[7] = system: Human immunodeficiency virus; assay: microbe, parasite or virus in culture; details: Human immunodeficiency virus 1, HEK-293T, 48 h
Description: Antiviral activity against Vesicular stomatitis virus G-pseudotyped HIV infected in human 293T cells transfected with pGJ3-Luci after 2 days by single round infectivity assay

[8] = Half life in Sprague-Dawley (CD) rat at 1 mg/kg, iv and 5 mg/kg, po; assay type: ADME, organism-based; details: in vivo
[9] = Permeability across MDCK cells; assay type: ADME, cell-based, Canis lupus familiaris; details: dog, read-out: permeability
[10] = Solubility of the compound by chemiluminescent nitrogen detection method; assay type: physicochemical
[11] = Clearance in Sprague-Dawley (CD) rat at 1 mg/kg, iv relative to hepatic blood flow; assay type: ADME, organism-based, Liver; set-up: dose 1 mg/kg, route intravenous; details: in vivo, read-out: CLH
[12] = target: T1, Human immunodeficiency virus type 1 integrase; assay: Inhibition of HIV1 integrase bound with donor DNA-SPA beads using 3'-end fluorescein isothiocyanate labeled target DNA as substrate assessed as strand transfer activity incubated prior to substrate addition

| SMILES | IC50 [1] [µM] | AUC/dose (Rattus norvegicus) [ng·h/mL/mg] | IC50 [2] [µM] | inhibition [3] | IC50 [7] [µM] | also measured |
| --- | --- | --- | --- | --- | --- | --- |
| O=c1nc(Nc2ccc(-c3ccncc3)cc2)c2cccnc2n1O | 1.99 | 1942 | 0.079 | inactive |  |  |
| O=C(NCc1ccc(Cl)cc1)c1ncc2cccnc2c1O |  |  |  |  |  | IC50 [4]: 0.135 µM; IC50 [5]: 20 µM |
| O=C1Cc2ccccc2C(=O)N1O |  |  |  |  |  | IC50 [6]: > 5000 µM |
| O=c1nc(Nc2ccc(CN3CCOCC3)cc2)c2cccnc2n1O | 1.3 | 226 | 0.2 | inactive | 0.16 | half-life [8]: 0.4 h; Papp [9]: 0.5 ×10⁻⁶ cm/s; solubility [10]: 503 µM (≈ 178 µg/mL); clearance [11]: 70 mL/min/kg |
| O=c1nc(Nc2ccc(-c3ccccc3)cc2)c2cccnc2n1O | 0.79 | 2934 |  | inactive |  |  |
| O=c1nc(NCc2cccc(N3CCOCC3)c2)c2cccnc2n1O | 1.99 |  | 0.2 | inactive | 0.38 |  |
| O=c1nc(N2CCC(F)(F)CC2)c2cccnc2n1O | 7.94 |  | 0.501 | inactive |  |  |
| O=c1nc(NCC2CC2)c2cccnc2n1O | 3.9 |  | 0.398 |  | 0.71 |  |
| O=c1nc(NCc2cccc(CN3CCOCC3)c2)c2cccnc2n1O | 15.9 |  | 0.398 | inactive | 0.3 |  |
| O=c1nc(NCc2ccc(F)cc2)c2cccnc2n1O | 3.16 |  | 0.158 | inactive |  |  |
| O=c1nc(NCc2ccc(-c3ccncc3)cc2)c2cccnc2n1O | 1.26 | 1000 | 0.016 | inactive |  |  |
| O=c1nc(NCc2ccc(-c3ccccc3)cc2)c2cccnc2n1O | 0.63 |  | 0.01 | inactive |  |  |
| O=c1nc(NCc2ccc(N3CCOCC3)cc2)c2cccnc2n1O | 1.58 | 713 | 0.1 | inactive | 0.47 | half-life [8]: 4.5 h; Papp [9]: 1.4 ×10⁻⁶ cm/s; solubility [10]: 293 µM (≈ 104 µg/mL); clearance [11]: 55 mL/min/kg |
| O=c1nc(Nc2ccc(N3CCOCC3)cc2)c2cccnc2n1O | 0.5 | 314 | 0.05 | inactive | 0.25 | half-life [8]: 2.4 h; Papp [9]: 0.7 ×10⁻⁶ cm/s; solubility [10]: 161 µM (≈ 54.6 µg/mL); clearance [11]: 45 mL/min/kg |
| O=C(NCc1ccc(F)cc1)c1nc(N2CCCCS2(=O)=O)c2cccnc2c1O |  |  |  |  |  | IC50 [12]: 10 µM |
